# Several values for one entry are separate records, joined by “and”; a condition that tells them apart may be missing. Equal entries are not always repeated. Where two headings read alike, the source gives them in different places.
# Columns and labels:
# MC3T3-E1 cells = assay: Bioactivity of released PTH(1-34): intracellular cAMP; format: cell-based; settings: PTH(1-34) released from microspheres at 1 and 3 days; 6 hrs incubation
# Description: Activity of controlled released PTH(1-34) was determined by measuring cAMP contents in cells treated with released PTH(1-34). For these experiments, the MC3T3-E1 was cultured in α-MEM supplemented with 10% fetal bovine serum and […] ascorbic acid. The cells were seeded onto 24-well plates at a density of 50,000 cells/well. After 6 hrs of incubation with released PTH (1-34) from microspheres, the cells were lysed directly in the medium by adding 0.1 N HCl and 0.5 mM isobutylmethylxanthine to protect the produced cAMP. Intracellular cAMP was measured using a commercially available ELISA kit (Endogen/Pierce, Rockford, Ill.) following the manufacturer's instructions.
# [1] = tested on: papain induced osteoarthritis; settings: injection once in three days for 5 weeks; cited from earlier work
# [2] = oral administration, in comparison to subcutaneous administration; cited from earlier work
# [3] = pulmonary route, cited from earlier work
# [4] = tested on: papain-induced osteoarthritis, articular cartilage; assay: Papain-induced osteoarthritis, histology and immunohistochemistry of articular cartilage; format: in vivo, rat
# Description: The animal experiments were approved by the Animal Care and Use Committee of Kaohsiung Medical University. Fifty-four 12-week-old male Sprague-Dawley rats (250-300 gm) were purchased from BioLASCO Taiwan and housed under standard laboratory conditions (temperature 24° C., 12-hour light-dark cycle) with food and water ad libitum. The animals were acclimatized to the laboratory environment for 1 week before the experiments.
# Each left knee, which served as the contralateral control joint, received the vehicle without PTH treatment or OA-induction. The right knees were the study joints. Rats were divided into five groups: Non-OA+PTH [PTH(1-34) treatment without OA-induction] (n=6), Non-OA+PTH/PLGA [PTH/PLGA microspheres treatment without OA-induction] (n=6), OA [OA-induction without PTH(1-34) treatment] (n=6), OA+PTH [PTH(1-34) treatment followed by OA-induction] (n=6), and OA+PTH/PLGA [PTH/PLGA microspheres treatment followed by OA-induction] (n=6). OA was induced in the right knees of rats in the OA and OA+PTH groups with intra-articular injections of 20 μl of 4% papain solution and 20 μl of 0.03 M cystein. The injections were given with a 26-gauge needle via the patellar tendon on days 1, 4, and 7 of the experiment (13). In the OA+PTH group, after OA-induction, the right knees were injected intra-articularly with 40 μl of 10 nM PTH(1-34) every three days until sacrifice. In the PTH group, the same PTH(1-34) treatment was performed but without OA-induction. In the OA+PTH/PLGA group, after OA-induction, the right knees were injected intra-articularly with 0.4 mg of PTH/PLGA microspheres at 1st and 15th day. The rats were sacrificed with an overdose of CO2-inhaled at the same time point at 5 weeks.
# After sacrifice, the knees of each rat were harvested, and the tibia plateaus with articular cartilage were collected and fixed with 10% neutral buffered formalin prior to histological preparation. The samples were then decalcified in 10% formic acid/PBS. The decalcified tibia articular samples were paraffin embedded, and 5 μm microsections in the coronary plane were prepared. GAG was stained with Safranin-O-Fast-Green (1% Safranin-O counter-stained with 0.75% hematoxylin and then 1% fast green) (Sigma, St. Louis, Mo.). Localized type II Collagen and type X collagen were immuno-stained.
# GAG was stained red by Safarinin-O, and the total and red-stained areas in the articular cartilage of each proximal tibia were measured using the Image-Pro plus 5.0 software (FIG. 6C) (Media Cybernetics Inc. MD, USA). The ratio of red stained area to total area (red/total) in each group was calculated.
# The tibia articular sections were re-hydrated, and the endogenous peroxidase in tissues was blocked with 3% hydrogen peroxide. Samples were digested by enzymes for epitope retrieval before incubation with primary antibodies. The method for enzyme digestion was modified from a previous report (20). The optimal condition for the enzyme digestion for type II collagen immuno-staining was a mixture of 2.5% hyluronidase and 1 mg/ml pronase in PBS (pH 7.4) (Sigma, St. Louis, Mo.) at 37° C. for 1 hour. For type X collagen immuno-staining the optimal condition was 0.1 U/ml chondroitinase ABC (Sigma, St. Louis, Mo.) for 1 hour and pepsin 1 mg/ml in tris-HCl (pH 3.0) at 37° C. for 15 minutes. […]
# [5] = Non-OA study joints (no OA-induction)
# [6] = OA-induced study joints, intra-articular, 5 weeks
compound,measurement,setting,value
CC[C@H](C)[C@H](NC(=O)[C@H](CCC(=O)O)NC(=O)[C@H](CO)NC(=O)[C@@H](NC(=O)[C@@H](N)CO)C(C)C)C(=O)N[C@@H](CCC(N)=O)C(=O)N[C@@H](CC(C)C)C(=O)N[C@@H](CCSC)C(=O)N[C@@H](Cc1cnc[nH]1)C(=O)N[C@@H](CC(N)=O)C(=O)N[C@@H](CC(C)C)C(=O)NCC(=O)N[C@@H](CCCCN)C(=O)N[C@@H](Cc1cnc[nH]1)C(=O)N[C@@H](CC(C)C)C(=O)N[C@@H](CC(N)=O)C(=O)N[C@@H](CO)C(=O)N[C@@H](CCSC)C(=O)N[C@@H](CCC(=O)O)C(=O)N[C@@H](CCCN=C(N)N)C(=O)N[C@H](C(=O)N[C@@H](CCC(=O)O)C(=O)N[C@@H](Cc1c[nH]c2ccccc12)C(=O)N[C@@H](CC(C)C)C(=O)N[C@@H](CCCN=C(N)N)C(=O)N[C@@H](CCCCN)C(=O)N[C@@H](CCCCN)C(=O)N[C@@H](CC(C)C)C(=O)N[C@@H](CCC(N)=O)C(=O)N[C@@H](CC(=O)O)C(=O)N[C@H](C(=O)N[C@@H](Cc1cnc[nH]1)C(=O)N[C@@H](CC(N)=O)C(=O)N[C@@H](Cc1ccccc1)C(=O)O)C(C)C)C(C)C [PTH(1-34)],cAMP production,MC3T3-E1 cells,increased production of cAMP
same,effective dose,[1],10^−8 M
same,bioavailability,[2],5% and 2.1%
same,bioavailability,[3]; inhalation of dry powders,34%
same,bioavailability,[3]; intratracheal instillation,40%
same,"Safranin O-stained area to total area (red:total, GAG) vs contralateral control",[4]; [5],not significantly different
same,type II collagen stained area to total area vs contralateral control,[4]; [5],not significantly different
same,type X collagen-stained chondrocytes vs OA group,"[4]; OA-induced study joints, after 5 weeks of treatment",less positive stained cells
same,"Safranin O-stained area to total area (red:total, GAG) vs contralateral control",[4]; [6],not significantly different from the contralateral control cartilage
same,type II collagen stained area to total area (brown:total) vs contralateral control,[4]; [6],not significantly different from the contralateral control cartilage

# — patent publication US8865220B2, “Method for controlled release of parathyroid hormone from encapsulated poly(lactic-glycolic)acid microspheres” (Kaohsiung Medical University, priority 2010, dated 2014)
